Read-outs that look alike come from different tables or passages of the source.
Legend:
[1] = system: MDA MB 231 tumor xenografts; assay: MDA MB 231 tumor xenograft growth in athymic nude mice; type: in vivo; details: for mean tumor volume: 45 mg/kg i.p. 3 times a week
Protocol: Animal experiments were performed in accordance with current Italian legislation and the animal protocol has been reviewed and approved by Italian Ministero della Salute (authorization n. 886/2020-PR). The study was designed to verify the effect of newly synthetized molecule with DDX3X inhibitor activity administered via i.p at a concentration of 45 mg/kg on the tumor growth of xenograft MDA MB 231 human breast cancer cells. In the study, n refers to the number of tumors expressed on both flanks of the animals. The sample size was calculated by g-power calculator placing a predictable large (2-fold increase) effect size, alpha as 0.05, and a confidence interval of 95% and we set our experimental unit number of 10 (corresponding to 5 animals). Total number of animals used in the study was 10. Six-week-old athymic nude mice were purchased from Charles River Laboratories. Five animals in each cage acclimatized in our animal facilities for 5 days in individually ventilated cages. Animals were fed with the lab diet ad libitum and water was accessible at all times and kept under standard specific pathogen-free conditions of 12 h light/dark cycle. Observational analysis was performed at the beginning of experimental procedure to ensure animal wellbeing (Table S1).
To establish xenograft tumors, MDA MB 231 cells were cultured in media as described above. On the day of experiment, cells (2.8 × 10^6) were suspended in 150 μL PBS 1:1 Matrigel and injected subcutaneously on both size of the flank region of nude mice. In order to determine tumor volume by manual caliper, the greatest longitudinal diameter (length) and the greatest transverse diameter (width) were determined. Tumor volumes based on caliper measurements were calculated by the modified ellipsoidal formula Tumor volume = 1/2(length × width^2).
Group allocation and treatments: once tumors reached a mean size of 24.82 ± 2.56 mm^3, animals were allocated in two groups by minimization strategy according to tumor size: the treatment group received 100 μL of a 45 mg/kg FHP01 suspended in a vehicle consisting of 10% DMSO, 5% Tween 80, 85% H2O via i.p. injection three times per week for 4 weeks; the control group included animals treated with 100 μL of vehicle (10% DMSO, 5% Tween 80, 85% H2O). One control animal reached HEP and was sacrificed and was not account for in the analysis. […]
For the final statistics, the number of tumors analyzed was 8 in the control group (one animal died for unknown reasons as certified by the AWB designed veterinary) and 9 for the treated group (the volume of one tumor was considered outlier). Results were reported as tumor volume increase, normalizing the value of each measurement to the baseline value of each sample and expressed as mean ± SEM. […]

DDX3X = system: DDX3X; parameters: method as in earlier work; details: in vitro enzymatic activity; read-out: IC50, DDX3X helicase activity; cited from earlier work
PBMCs = assay: Cell viability assay in peripheral blood mononuclear cells; type: cell-based; details: up to a concentration of 50 μM, 72 h
Protocol: Two days before the assay, phytohemagglutinin-A (PHA) 2 µg/mL was added to the PBMC culture. Cells were seeded at 13 × 10^4 cells/well in triplicate and maintained at 37 °C in 5% CO2. After 24 h, cells were treated with 10 μM and 50 μM of indicated drugs. After 72 h incubation, cells were washed in PBS and harvested. Cell number of each sample was determined with Z2 Coulter Counter (Beckman Coulter), in triplicate. Data about cell viability were plotted in GraphPad Prism 8.0 software 100% viability corresponding to vehicle (DMSO) treated PBMCs.

[2] = Drug distribution to brain and liver in mice; type: in vivo, Swiss Albino mice; details: for Kp at 4 h / Kp at 8 h: male, Swiss Albino, mouse, ip, 10 mg/kg, ng/g normalized against ng/mL
Protocol: (§1) These studies were performed at the GVKBioscience Pvt. LTD Contract Research and Development Organization (CRDO). Animals were housed in cages with clean bedding. Adult Swiss Albino male mice (weight = 20–35 g) were maintained and monitored for good health in accordance with GVKBioscience Pvt. LTD Test Facility SOPs and at the discretion of the laboratory animal veterinarian. Certified rodent diet was provided, and water was available ad libitum. A periodic analysis of the water was performed, and the results have been archived at the Test Facility. Environmental controls for the animal room were set to maintain a temperature of 22 to 25 °C, humidity of 40–70% relative humidity, and a 12-h light/12-h dark cycle. Animals have been dosed i.v. with 1 mg/kg of FHP01 i.p. with 10 mg/kg of compound or p.o. through gastric gavage needle with 50 mg/kg of compound. Next, mice were anesthetized using gaseous anesthesia and blood samples were collected at each time point, from 3 mice of respective group. After collection of blood samples at each time point, the blood samples were stored on ice, prior to centrifugation. Blood samples were centrifuged at 1540 rcf (5000 rpm), 4 °C for 10 min to separate plasma. Plasma was transferred to pre-labeled micro-centrifuge tubes and promptly frozen at −80 °C until analysis. Samples have been identified by test item, group, animal number, and collection time point. A fit-for-purpose bioanalytical method was developed for analyzing the plasma samples. One set of nine standards have been run before the sample batch and used for plotting the calibration curve. Quality control (QC) samples have been prepared at a minimum of three concentrations, i.e., LQC (not more than 5 times to that of lowest standard concentration), HQC (not less than 75% of the highest standard concentration), and MQC (between the low and high concentration). Minimum of 6 QC samples (three concentrations in duplicate). One Set of QC (LQC, MQC, and HQC) samples have been analyzed before and after the sample batch.
For the analyses of drug distribution to brain and liver, whole body perfusion was performed using chilled saline in the defined group of animals followed by decapitation for tissue collection. The chest of the mice was exposed, the abdominal aorta was clamped, and both jugular veins were cut. Intra-cardial perfusion was performed through an insertion in the left ventricle. Mice brains and livers have been collected and immediately washed, dried, weighed and freeze at −80 °C until homogenization. The protocol has been reviewed and approved by the Institutional Animal Ethics Committee (IAEC).

[3] = Pharmacokinetic profiling, plasma concentration in mice; type: in vivo, Swiss Albino mice
Protocol: as §1

[4] = brain/plasma, i.p. administration, read-out: BRAIN/PLASMA
[5] = liver/plasma, i.p. administration, read-out: LIVER/PLASMA

tissue concentration ([2]; 24 h after administration): below the level of quantitation
BRAIN/PLASMA ([2]; i.p. administration, 12h): BLQ
LIVER/PLASMA ([2]; i.p. administration, 12h): BLQ
Kp at 4 h [2, 4]: 0.5 ± 0.24
Kp at 8 h [2, 4]: 3.14 ± 0.74
Kp at 4 h [2, 5]: 3.75 ± 1.06
Kp at 8 h [2, 5]: 6.32 ± 2.23
plasma concentration profile ([3]; 1 mg/kg i.v.): rapidly decreasing plasma concentration
plasma concentration profile ([3]; 10 mg/kg i.p.): high plasma concentration
plasma concentration profile ([3]; 50 mg/kg p.o.): high plasma concentration
SMILES: CCCCc1cn(-c2ccc(NC(=O)Nc3ccccc3C(F)(F)F)cc2)nn1 [FHP01]
mean tumor volume ([1]; Day 0 of the treatment): 25.49± 4.58 mm^3
mean tumor volume ([1]; Day 18, control 73.40 ± 9.72): 24.18 ± 4.44 mm^3
mean tumor volume ([1]; Day 28, control 129.85 ± 21.39): 37.23 ± 11.45 mm^3
effect size, decrease in tumor growth (control/treated) ([1]; end of the procedure, 45 mg/kg i.p.): about 4 fold
IC50 (DDX3X): 300 nM
effect on viability of normal PBMC (PBMCs): no effect

From publication PMC8507746, “The FHP01 DDX3X Helicase Inhibitor Exerts Potent Anti-Tumor Activity In Vivo in Breast Cancer Pre-Clinical Models” (Cancers, 2021)
